Patent US8003372B2, “Device for performing cell assays” (The University Court of the University of Glasgow, priority 2002, dated 2011)

Test system: adult ventricular myocytes
Procedure: Single cardiac myocytes were isolated from rabbit ventricles by collagenase digestion (D. A. Eisner, C. G. Nichols, S. C. O'Neill, G. L. Smith and M. Valdeomillos, The effects of metabolic inhibition on intracellular calcium an pH in isolated rat ventricular cells, Journal of Physiology, 411, (1989), 393-418) and kept in Base Krebs Solution, containing 120 mM NaCl, 20 mM sodium N-hydroxyethylpiperazine-N′-2-ethane sulphonic acid, 5.4 mM KCl, 0.52 mM NaH2PO4, 3.5 mM MgCl2.6H2O, 20 mM Taurine, 10 mM Creatine, 100 mM Glucose, 0.1% BSA, 0.1 mM CaCl2. The pH was adjusted to 7.4 with 100 mM NaOH.
Sarcomere length and intracellular Ca^2+ concentration ([Ca^2+]i) were monitored simultaneous using the fluorescence-contractility System of Ionoptix (Milton, Mass., USA). Ventricular myocytes were loaded with Fluo-3 by incubation for 30 min in 20 μM Fluo-3 AM solution (Molecular Probes). […] To measure the possible change in extracellular pH during field stimulation, 10 μM BCECF (Molecular Probes) was added to the bath and the emission was recorded using the same filter set as for Fluo-3. […]
Symmetric biphasic rectangular pulses were generated across the electrodes. […] A voltage-current converter was used to read the current response of one electrode together with the corresponding voltage into a 20 MHz 4 channel acquisition card (PCI-9812, Adlink, Taiwan). A TTL signal synchronous to the biphasic pulses was fed into the reader of the PMT-current to mark each pulse arrival on the fluorescence trace for off-line event averaging. After filling the microchambers with electrolyte (buffer), the current evoked on the individual stimulation electrodes was monitored to assure the ionic connection between the microelectrodes in each chamber, prior to the addition of cardiac muscle cells. The measured current was integrated to give a measure of the total amount of net-charge added to the microchamber, and the polarization of the electrode surface. […]

Compound: N#CC(C#N)=NNc1ccc(OC(F)(F)F)cc1 [FCCP]
- Ca2+ transients evoked at 0.5 Hz (1 μM FCCP, 10 minutes after the 50 min time point of continual stimulation, 100 pL chamber): ceased almost completely
- response of the cell to electrical stimuli (Ca2+ transient) (1 μM FCCP, after 50 min continual stimulation at alternating frequencies of 0.5 and 1.0 Hz, 100 pL chamber): no longer responded to every single stimulus with a Ca^2+ transient of normal amplitude
- excitability of the cell after washing out (after washing out FCCP, changing the buffer and a 5 min rest interval): regained its excitability
